{"source": "the supplement of paper PMC10307832", "assay_in_all_cases": "relative viability (nuclei count vs DMSO), 5 days (fraction); higher = more cells survive", "key": {"BEN": {"test_system": "BEN", "outline": "(§1)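 Five library-drug doses in √10 steps were combined with a fixed anchor-drug dose, or a single drug was given alone, by pin tool to lung cancer cell lines in 1536-well plates the day after seeding. Nuclei were stained and counted after 5 days. Relative viability is the nuclei count in treated wells over that in vehicle wells, taken as the median of duplicate plates.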"}, "CAL-12T": {"test_system": "CAL-12T", "outline": "as §1"}, "COR-L23": {"test_system": "COR-L23", "outline": "as §1"}, "LU99A": {"test_system": "LU99A", "outline": "as §1"}, "LXF-289": {"test_system": "LXF-289", "outline": "as §1"}, "NCI-H1355": {"test_system": "NCI-H1355", "outline": "as §1"}, "NCI-H1437": {"test_system": "NCI-H1437", "outline": "as §1"}, "NCI-H1563": {"test_system": "NCI-H1563", "outline": "as §1"}, "NCI-H1650": {"test_system": "NCI-H1650", "outline": "as §1"}, "NCI-H1651": {"test_system": "NCI-H1651", "outline": "as §1"}, "NCI-H1666": {"test_system": "NCI-H1666", "outline": "as §1"}, "NCI-H1755": {"test_system": "NCI-H1755", "outline": "as §1"}, "NCI-H1993": {"test_system": "NCI-H1993", "outline": "as §1"}, "NCI-H2085": {"test_system": "NCI-H2085", "outline": "as §1"}, "NCI-H2087": {"test_system": "NCI-H2087", "outline": "as §1"}, "NCI-H2170": {"test_system": "NCI-H2170", "outline": "as §1"}, "NCI-H460": {"test_system": "NCI-H460", "outline": "as §1"}, "NCI-H520": {"test_system": "NCI-H520", "outline": "as §1"}, "PC-14": {"test_system": "PC-14", "outline": "as §1"}, "SK-MES-1": {"test_system": "SK-MES-1", "outline": "as §1"}}}
{"smiles": "Cc1csc(=NC2CCCCC2)n1/N=C/c1ccc(O)c(O)c1O", "note": "[MIM1] + COc1cc2c(Oc3ccc(NC(=O)C4(C(=O)Nc5ccc(F)cc5)CC4)cc3F)ccnc2cc1OCCCN1CCOCC1 [Foretinib] (partner 0.25 µM)", "values": [{"measurement": "relative viability", "setting": "BEN; first compound 0.2 µM", "result": 0.705}, {"measurement": "relative viability", "setting": "BEN; first compound 0.6325 µM", "result": 0.531}, {"measurement": "relative viability", "setting": "BEN; first compound 2 µM", "result": 0.719}, {"measurement": "relative viability", "setting": "BEN; first compound 6.325 µM", "result": 0.551}, {"measurement": "relative viability", "setting": "BEN; first compound 20 µM", "result": 0.294}, {"measurement": "relative viability", "setting": "CAL-12T; first compound 0.2 µM", "result": 1.03}, {"measurement": "relative viability", "setting": "CAL-12T; first compound 0.6325 µM", "result": 1.16}, {"measurement": "relative viability", "setting": "CAL-12T; first compound 2 µM", "result": 1.2}, {"measurement": "relative viability", "setting": "CAL-12T; first compound 6.325 µM", "result": 0.68}, {"measurement": "relative viability", "setting": "CAL-12T; first compound 20 µM", "result": 0.475}, {"measurement": "relative viability", "setting": "COR-L23; first compound 0.2 µM", "result": 0.992}, {"measurement": "relative viability", "setting": "COR-L23; first compound 0.6325 µM", "result": 0.935}, {"measurement": "relative viability", "setting": "COR-L23; first compound 2 µM", "result": 0.839}, {"measurement": "relative viability", "setting": "COR-L23; first compound 6.325 µM", "result": 0.802}, {"measurement": "relative viability", "setting": "COR-L23; first compound 20 µM", "result": 0.547}, {"measurement": "relative viability", "setting": "LU99A; first compound 0.2 µM", "result": 0.808}, {"measurement": "relative viability", "setting": "LU99A; first compound 0.6325 µM", "result": 0.775}, {"measurement": "relative viability", "setting": "LU99A; first compound 2 µM", "result": 0.751}, {"measurement": "relative viability", "setting": "LU99A; first compound 6.325 µM", "result": 0.743}, {"measurement": "relative viability", "setting": "LU99A; first compound 20 µM", "result": 0.407}, {"measurement": "relative viability", "setting": "LXF-289; first compound 0.2 µM", "result": 1.02}, {"measurement": "relative viability", "setting": "LXF-289; first compound 0.6325 µM", "result": 0.9}, {"measurement": "relative viability", "setting": "LXF-289; first compound 2 µM", "result": 1.03}, {"measurement": "relative viability", "setting": "LXF-289; first compound 6.325 µM", "result": 0.789}, {"measurement": "relative viability", "setting": "LXF-289; first compound 20 µM", "result": 0.721}, {"measurement": "relative viability", "setting": "NCI-H1355; first compound 0.2 µM", "result": 0.911}, {"measurement": "relative viability", "setting": "NCI-H1355; first compound 0.6325 µM", "result": 0.885}, {"measurement": "relative viability", "setting": "NCI-H1355; first compound 2 µM", "result": 0.976}, {"measurement": "relative viability", "setting": "NCI-H1355; first compound 6.325 µM", "result": 0.87}, {"measurement": "relative viability", "setting": "NCI-H1355; first compound 20 µM", "result": 0.629}, {"measurement": "relative viability", "setting": "NCI-H1437; first compound 0.2 µM", "result": 1.24}, {"measurement": "relative viability", "setting": "NCI-H1437; first compound 0.6325 µM", "result": 1.34}, {"measurement": "relative viability", "setting": "NCI-H1437; first compound 2 µM", "result": 1.19}, {"measurement": "relative viability", "setting": "NCI-H1437; first compound 6.325 µM", "result": 1.1}, {"measurement": "relative viability", "setting": "NCI-H1437; first compound 20 µM", "result": 0.243}, {"measurement": "relative viability", "setting": "NCI-H1563; first compound 0.2 µM", "result": 0.971}, {"measurement": "relative viability", "setting": "NCI-H1563; first compound 0.6325 µM", "result": 0.975}, {"measurement": "relative viability", "setting": "NCI-H1563; first compound 2 µM", "result": 0.866}, {"measurement": "relative viability", "setting": "NCI-H1563; first compound 6.325 µM", "result": 0.819}, {"measurement": "relative viability", "setting": "NCI-H1563; first compound 20 µM", "result": 0.772}, {"measurement": "relative viability", "setting": "NCI-H1650; first compound 0.2 µM", "result": 1.16}, {"measurement": "relative viability", "setting": "NCI-H1650; first compound 0.6325 µM", "result": 1.12}, {"measurement": "relative viability", "setting": "NCI-H1650; first compound 2 µM", "result": 0.832}, {"measurement": "relative viability", "setting": "NCI-H1650; first compound 6.325 µM", "result": 0.265}, {"measurement": "relative viability", "setting": "NCI-H1650; first compound 20 µM", "result": 0.142}, {"measurement": "relative viability", "setting": "NCI-H1651; first compound 0.2 µM", "result": 0.722}, {"measurement": "relative viability", "setting": "NCI-H1651; first compound 0.6325 µM", "result": 0.741}, {"measurement": "relative viability", "setting": "NCI-H1651; first compound 2 µM", "result": 0.824}, {"measurement": "relative viability", "setting": "NCI-H1651; first compound 6.325 µM", "result": 0.648}, {"measurement": "relative viability", "setting": "NCI-H1651; first compound 20 µM", "result": 0.652}, {"measurement": "relative viability", "setting": "NCI-H1666; first compound 0.2 µM", "result": 0.943}, {"measurement": "relative viability", "setting": "NCI-H1666; first compound 0.6325 µM", "result": 0.962}, {"measurement": "relative viability", "setting": "NCI-H1666; first compound 2 µM", "result": 1}, {"measurement": "relative viability", "setting": "NCI-H1666; first compound 6.325 µM", "result": 0.724}, {"measurement": "relative viability", "setting": "NCI-H1666; first compound 20 µM", "result": 0.597}, {"measurement": "relative viability", "setting": "NCI-H1755; first compound 0.2 µM", "result": 0.882}, {"measurement": "relative viability", "setting": "NCI-H1755; first compound 0.6325 µM", "result": 0.927}, {"measurement": "relative viability", "setting": "NCI-H1755; first compound 2 µM", "result": 0.902}, {"measurement": "relative viability", "setting": "NCI-H1755; first compound 6.325 µM", "result": 0.72}, {"measurement": "relative viability", "setting": "NCI-H1755; first compound 20 µM", "result": 0.563}, {"measurement": "relative viability", "setting": "NCI-H1993; first compound 0.2 µM", "result": 0.7}, {"measurement": "relative viability", "setting": "NCI-H1993; first compound 0.6325 µM", "result": 0.715}, {"measurement": "relative viability", "setting": "NCI-H1993; first compound 2 µM", "result": 0.671}, {"measurement": "relative viability", "setting": "NCI-H1993; first compound 6.325 µM", "result": 0.659}, {"measurement": "relative viability", "setting": "NCI-H1993; first compound 20 µM", "result": 0.64}, {"measurement": "relative viability", "setting": "NCI-H2085; first compound 0.2 µM", "result": 0.895}, {"measurement": "relative viability", "setting": "NCI-H2085; first compound 0.6325 µM", "result": 1.11}, {"measurement": "relative viability", "setting": "NCI-H2085; first compound 2 µM", "result": 1.13}, {"measurement": "relative viability", "setting": "NCI-H2085; first compound 6.325 µM", "result": 0.935}, {"measurement": "relative viability", "setting": "NCI-H2085; first compound 20 µM", "result": 0.843}, {"measurement": "relative viability", "setting": "NCI-H2087; first compound 0.2 µM", "result": 1.04}, {"measurement": "relative viability", "setting": "NCI-H2087; first compound 0.6325 µM", "result": 1.31}, {"measurement": "relative viability", "setting": "NCI-H2087; first compound 2 µM", "result": 1.18}, {"measurement": "relative viability", "setting": "NCI-H2087; first compound 6.325 µM", "result": 0.813}, {"measurement": "relative viability", "setting": "NCI-H2087; first compound 20 µM", "result": 0.847}, {"measurement": "relative viability", "setting": "NCI-H2170; first compound 0.2 µM", "result": 0.979}, {"measurement": "relative viability", "setting": "NCI-H2170; first compound 0.6325 µM", "result": 1.01}, {"measurement": "relative viability", "setting": "NCI-H2170; first compound 2 µM", "result": 0.824}, {"measurement": "relative viability", "setting": "NCI-H2170; first compound 6.325 µM", "result": 0.77}, {"measurement": "relative viability", "setting": "NCI-H2170; first compound 20 µM", "result": 0.295}, {"measurement": "relative viability", "setting": "NCI-H460; first compound 0.2 µM", "result": 0.954}, {"measurement": "relative viability", "setting": "NCI-H460; first compound 0.6325 µM", "result": 0.987}, {"measurement": "relative viability", "setting": "NCI-H460; first compound 2 µM", "result": 0.862}, {"measurement": "relative viability", "setting": "NCI-H460; first compound 6.325 µM", "result": 0.493}, {"measurement": "relative viability", "setting": "NCI-H460; first compound 20 µM", "result": 0.0555}, {"measurement": "relative viability", "setting": "NCI-H520; first compound 0.2 µM", "result": 0.635}, {"measurement": "relative viability", "setting": "NCI-H520; first compound 0.6325 µM", "result": 0.728}, {"measurement": "relative viability", "setting": "NCI-H520; first compound 2 µM", "result": 0.587}, {"measurement": "relative viability", "setting": "NCI-H520; first compound 6.325 µM", "result": 0.646}, {"measurement": "relative viability", "setting": "NCI-H520; first compound 20 µM", "result": 0.501}, {"measurement": "relative viability", "setting": "PC-14; first compound 0.2 µM", "result": 0.931}, {"measurement": "relative viability", "setting": "PC-14; first compound 0.6325 µM", "result": 0.942}, {"measurement": "relative viability", "setting": "PC-14; first compound 2 µM", "result": 0.908}, {"measurement": "relative viability", "setting": "PC-14; first compound 6.325 µM", "result": 0.784}, {"measurement": "relative viability", "setting": "PC-14; first compound 20 µM", "result": 0.629}, {"measurement": "relative viability", "setting": "SK-MES-1; first compound 0.2 µM", "result": 0.897}, {"measurement": "relative viability", "setting": "SK-MES-1; first compound 0.6325 µM", "result": 0.891}, {"measurement": "relative viability", "setting": "SK-MES-1; first compound 2 µM", "result": 0.861}, {"measurement": "relative viability", "setting": "SK-MES-1; first compound 6.325 µM", "result": 0.805}, {"measurement": "relative viability", "setting": "SK-MES-1; first compound 20 µM", "result": 0.758}]}
